Source: ChEMBL document CHEMBL4483862, “Open-source discovery of chemical leads for next-generation chemoprotective antimalarials” (2018)

System: Plasmodium berghei
Assay: Luciferase/luciferin-expressing antifolate-resistant parasites were used to infect a culture of HepG2 cells that were pre-incubated with compounds. Infected hepatocytes emit light due to the luciferase reaction. Assay results are presented as the percent inhibition of light emission compared to control. […]
Assay type: functional
Settings: sporozoite; for IC90: read-out: LUCIFERASE INFECTION ASSAY - IC90

With COc1cccc(-c2cnc3c(NC=O)cc(-c4ccc(OC)cc4OC)cn23)c1 the IC50 (HEPG2TOX_HILL_SLOPE 0.453, HEPG2TOX_R_SQUARED 0.602, PBLUC_HILL_SLOPE 0.932, PBLUC_R_SQUARED 0.666, read-out: LUCIFERASE INFECTION ASSAY - IC50) was 0.0629 µM and the IC90 was 0.664 µM.
Compound COc1ccc(-c2cnc3ccc(NCc4ccccn4)nn23)cc1OC has an IC50 (HEPG2TOX_HILL_SLOPE 0.427, HEPG2TOX_R_SQUARED 0.871, PBLUC_HILL_SLOPE 2.47, PBLUC_R_SQUARED 0.694, read-out: LUCIFERASE INFECTION ASSAY - IC50) of 2.41 µM and an IC90 of 5.88 µM.
Work on COc1cccc(-c2cc(=O)[nH]c(Nc3nc(C)c4cc(C)ccc4n3)n2)c1 yielded an IC50 (HEPG2TOX_HILL_SLOPE 0.454, HEPG2TOX_R_SQUARED 0.693, PBLUC_HILL_SLOPE 1.82, PBLUC_R_SQUARED 0.608, read-out: LUCIFERASE INFECTION ASSAY - IC50) of 2.67 µM and an IC90 of over 8.84 µM.
In the case of Clc1ccc2c(NCc3coc(-c4cccs4)n3)ncnc2c1, the IC50 (HEPG2TOX_HILL_SLOPE 0.478, HEPG2TOX_R_SQUARED 0.927, PBLUC_HILL_SLOPE 2.76, PBLUC_R_SQUARED 0.49, read-out: LUCIFERASE INFECTION ASSAY - IC50) is reported as 2.71 µM and the IC90 is reported as 6.02 µM.
CC(C)CC(=O)NNc1ccnc2cc(Cl)ccc12 was tested, and the IC50 (HEPG2TOX_HILL_SLOPE 0.439, HEPG2TOX_R_SQUARED 0.287, PBLUC_HILL_SLOPE 11, PBLUC_R_SQUARED 0.716, read-out: LUCIFERASE INFECTION ASSAY - IC50) was 3.51 µM and the IC90 was 4.29 µM.
For Cc1ccc(C2c3c(-c4cc(C)cc(C)c4O)n[nH]c3C(=O)N2CCCO)cc1 (centres undefined), the IC50 (HEPG2TOX_HILL_SLOPE 0.468, HEPG2TOX_R_SQUARED 0.76, PBLUC_HILL_SLOPE 1.88, PBLUC_R_SQUARED 0.575, read-out: LUCIFERASE INFECTION ASSAY - IC50) was 5.49 µM and the IC90 was over 8.43 µM.
Cc1cc(/C=C/c2cc(C(=O)O)c3ccccc3n2)cc(C)c1OC(F)F gave an IC50 (HEPG2TOX_HILL_SLOPE 0.464, HEPG2TOX_R_SQUARED 0.656, PBLUC_HILL_SLOPE 13.4, PBLUC_R_SQUARED 0.624, read-out: LUCIFERASE INFECTION ASSAY - IC50) of 3.28 µM and an IC90 of 3.87 µM.
COc1ccc(-c2cs/c(=N\c3ccccc3C(F)(F)F)n2/N=C/c2ccc(O)c(O)c2)cc1 showed an IC50 (HEPG2TOX_HILL_SLOPE 0.402, HEPG2TOX_R_SQUARED 0.786, PBLUC_HILL_SLOPE 2.07, PBLUC_R_SQUARED 0.586, read-out: LUCIFERASE INFECTION ASSAY - IC50) of 3.82 µM and an IC90 of over 10 µM.
In the case of CC(Sc1nc2scc(-c3ccccc3)c2c(=O)n1C)c1ccccc1 (centres undefined), the IC50 (HEPG2TOX_HILL_SLOPE 0.394, HEPG2TOX_R_SQUARED 0.0907, read-out: LUCIFERASE INFECTION ASSAY - IC50) is reported as over 10 µM and the IC90 is reported as over 10 µM.
For CNc1ccccc1C(C)(C)c1cc(-c2ccc(C(C)C)cc2)n[nH]1, the IC50 (HEPG2TOX_HILL_SLOPE 0.485, HEPG2TOX_R_SQUARED 0.452, PBLUC_HILL_SLOPE 15.6, PBLUC_R_SQUARED 0.572, read-out: LUCIFERASE INFECTION ASSAY - IC50) was 8.84 µM and the IC90 was over 10 µM.
Compound Cc1ccc2nc(NC(=O)c3c(F)cccc3F)c(C(=O)NC3CCCC3)n2c1 has an IC50 (HEPG2TOX_HILL_SLOPE 0.446, HEPG2TOX_R_SQUARED 0.792, PBLUC_HILL_SLOPE 1.53, PBLUC_R_SQUARED 0.752, read-out: LUCIFERASE INFECTION ASSAY - IC50) of 1.95 µM and an IC90 of 8.17 µM.
Work on CC(C)(C)NC(=O)CN1CCN(Cc2ccc(-c3ccccc3C#N)cc2)CC1 yielded an IC50 (HEPG2TOX_HILL_SLOPE 0.417, HEPG2TOX_R_SQUARED 0.524, read-out: LUCIFERASE INFECTION ASSAY - IC50) of over 10 µM and an IC90 of over 10 µM.
COc1ccc(-c2nnc(SCC(=O)c3cc(F)ccc3OC)[nH]2)cc1 was tested, and the IC50 (HEPG2TOX_HILL_SLOPE 0.475, HEPG2TOX_R_SQUARED 0.679, read-out: LUCIFERASE INFECTION ASSAY - IC50) was over 10 µM and the IC90 was over 10 µM.
Compound CS(=O)(=O)c1ccc(S(=O)(=O)Oc2ccc(C3CCCCC3)cc2)cc1 has an IC50 (HEPG2TOX_HILL_SLOPE 0.47, HEPG2TOX_R_SQUARED 0.776, PBLUC_HILL_SLOPE 1, PBLUC_R_SQUARED 0.337, read-out: LUCIFERASE INFECTION ASSAY - IC50) of 6.62 µM and an IC90 of over 10 µM.
Compound CN(Cc1ccc(N2CCCCC2)cc1)C(=O)c1cc(-c2cccnc2)nc2ccccc12 has an IC50 (HEPG2TOX_HILL_SLOPE 0.393, HEPG2TOX_R_SQUARED 0.924, PBLUC_HILL_SLOPE 2.39, PBLUC_R_SQUARED 0.338, read-out: LUCIFERASE INFECTION ASSAY - IC50) of 4.33 µM and an IC90 of over 10 µM.
Cc1ccc(Sc2nc3ccccc3nc2NS(=O)(=O)c2ccc(F)cc2C)cc1 gave an IC50 (HEPG2TOX_HILL_SLOPE 0.43, HEPG2TOX_R_SQUARED 0.741, read-out: LUCIFERASE INFECTION ASSAY - IC50) of over 10 µM and an IC90 of over 10 µM.
Cc1ccc(-c2nc(-c3ccccc3)nc(N3CCN(C)CC3)c2C#N)cc1 was tested, and the IC50 (HEPG2TOX_HILL_SLOPE 0.407, HEPG2TOX_R_SQUARED 0.712, PBLUC_HILL_SLOPE 0.491, PBLUC_R_SQUARED 0.261, read-out: LUCIFERASE INFECTION ASSAY - IC50) was over 8.93 µM and the IC90 was over 8.93 µM.
O=C(Nc1nc(CN2CCOCC2)cs1)c1ccc(-c2ccccc2)cc1 was tested, and the IC50 (HEPG2TOX_HILL_SLOPE 0.446, HEPG2TOX_R_SQUARED 0.661, PBLUC_HILL_SLOPE 0.824, PBLUC_R_SQUARED 0.624, read-out: LUCIFERASE INFECTION ASSAY - IC50) was 0.817 µM and the IC90 was over 10 µM.
Work on Oc1cccc(-c2cnc3cnc(-c4ccco4)cn23)c1 yielded an IC50 (HEPG2TOX_HILL_SLOPE 0.436, HEPG2TOX_R_SQUARED 0.582, PBLUC_HILL_SLOPE 2.53, PBLUC_R_SQUARED 0.573, read-out: LUCIFERASE INFECTION ASSAY - IC50) of 6.72 µM and an IC90 of over 11.9 µM.
Work on CC(=O)c1c(C)[nH]c(C(=O)OCC(=O)Nc2ccccc2C(F)(F)F)c1C yielded an IC50 (HEPG2TOX_HILL_SLOPE 0.401, HEPG2TOX_R_SQUARED 0.713, read-out: LUCIFERASE INFECTION ASSAY - IC50) of over 10 µM and an IC90 of over 10 µM.
Work on CC1CN(CC(O)COCc2ccc(Cl)cc2)CCN1CC(O)COCc1ccc(Cl)cc1 (centres undefined) yielded an IC50 (HEPG2TOX_HILL_SLOPE 0.385, HEPG2TOX_R_SQUARED 0.947, PBLUC_HILL_SLOPE 12.7, PBLUC_R_SQUARED 0.144, read-out: LUCIFERASE INFECTION ASSAY - IC50) of 9.06 µM and an IC90 of over 10 µM.
O=C(Nc1nc(CN2CCOCC2)cs1)c1ccc(-c2ccc(Cl)cc2)s1 was tested, and the IC50 (HEPG2TOX_HILL_SLOPE 0.481, HEPG2TOX_R_SQUARED 0.864, PBLUC_HILL_SLOPE 0.848, PBLUC_R_SQUARED 0.477, read-out: LUCIFERASE INFECTION ASSAY - IC50) was 0.826 µM and the IC90 was over 10 µM.
Work on O=C1C=C/C(=N\Nc2ccc3ccccc3c2)c2cccnc21 yielded an IC50 (HEPG2TOX_HILL_SLOPE 0.424, HEPG2TOX_R_SQUARED 0.848, PBLUC_HILL_SLOPE 2.17, PBLUC_R_SQUARED 0.805, read-out: LUCIFERASE INFECTION ASSAY - IC50) of 0.42 µM and an IC90 of 1.15 µM.
In the case of CCN(CC)S(=O)(=O)c1cc(C(=O)c2c(-c3ccc(Cl)cc3)cc3ccccn23)ccc1F, the IC50 (HEPG2TOX_HILL_SLOPE 0.422, HEPG2TOX_R_SQUARED 0.219, read-out: LUCIFERASE INFECTION ASSAY - IC50) is reported as over 10 µM and the IC90 is reported as over 10 µM.
Compound COCCCNc1nccc2nc(-c3cccc(C(C)C)c3)[nH]c12 has an IC50 (HEPG2TOX_HILL_SLOPE 0.453, HEPG2TOX_R_SQUARED 0.728, PBLUC_HILL_SLOPE 2.13, PBLUC_R_SQUARED 0.522, read-out: LUCIFERASE INFECTION ASSAY - IC50) of 4.47 µM and an IC90 of over 10 µM.
For COc1ccc(NS(=O)(=O)c2ccc(/C=C/C(=O)N(C)Cc3ccc(OC)c(OC)c3OC)cc2)cc1, the IC50 (HEPG2TOX_HILL_SLOPE 0.416, HEPG2TOX_R_SQUARED 0.547, PBLUC_HILL_SLOPE 11.7, PBLUC_R_SQUARED 0.671, read-out: LUCIFERASE INFECTION ASSAY - IC50) was 9.46 µM and the IC90 was over 10 µM.
For Cc1nn(Cc2ccccc2)c(Cl)c1C(=O)OC(C)C(=O)N1CCN(Cc2ccccc2)CC1 (centres undefined), the IC50 (HEPG2TOX_HILL_SLOPE 0.446, HEPG2TOX_R_SQUARED 0.649, read-out: LUCIFERASE INFECTION ASSAY - IC50) was over 10 µM and the IC90 was over 10 µM.
For Cc1n(C)c2c([n+]1C)C(=O)c1ccccc1C2=O, the IC50 (HEPG2TOX_HILL_SLOPE 0.401, HEPG2TOX_R_SQUARED 0.884, PBLUC_HILL_SLOPE 1.09, PBLUC_R_SQUARED 0.944, read-out: LUCIFERASE INFECTION ASSAY - IC50) was 0.017 µM and the IC90 was 0.128 µM.
In the case of Fc1cccc(-c2nc3ccnc(Nc4ccccc4)c3[nH]2)c1, the IC50 (HEPG2TOX_HILL_SLOPE 0.405, HEPG2TOX_R_SQUARED 0.516, PBLUC_HILL_SLOPE 2.81, PBLUC_R_SQUARED 0.545, read-out: LUCIFERASE INFECTION ASSAY - IC50) is reported as 5.99 µM and the IC90 is reported as over 10 µM.
Compound Cc1ccc(-n2nc(C)c(C(=O)Nc3ccccc3N3CCN(C)CC3)n2)c(C)c1 has an IC50 (HEPG2TOX_HILL_SLOPE 0.399, HEPG2TOX_R_SQUARED 0.0602, read-out: LUCIFERASE INFECTION ASSAY - IC50) of over 10 µM and an IC90 of over 10 µM.
N#Cc1cccc(CSc2nc(NC3CC3)c3ccccc3n2)c1 was tested, and the IC50 (HEPG2TOX_HILL_SLOPE 0.422, HEPG2TOX_R_SQUARED 0.349, read-out: LUCIFERASE INFECTION ASSAY - IC50) was over 10 µM and the IC90 was over 10 µM.
With COC(=O)Cc1[nH]n(-c2ccccc2)c(=O)c1C(C)=NCc1cccnc1 the IC50 (HEPG2TOX_HILL_SLOPE 0.403, HEPG2TOX_R_SQUARED 0.018, read-out: LUCIFERASE INFECTION ASSAY - IC50) was over 9.06 µM and the IC90 was over 9.06 µM.
